As usually defined, the EC50 is the concentration giving half of the maximal effect. Usually Ki stands for a measure of affinity in units of concentration, obtained from inhibition or displacement.

Results on six compounds are retold here after US7737127B2, “2-propynyl adenosine analogs having A2A agonist activity and compositions thereof” (University of Virginia Patent Foundation, priority 2001, dated 2010).

In test [1] the test system is human neutrophils. Description: Human neutrophil oxidative activity, luminol-enhanced chemiluminescence. Particulars: for EC50: Homo sapiens, Neutrophil, human neutrophil experiment w/o Rolipram, read-out: PMN oxid (-log EC50) (converted); for PMN oxid + roli (-log EC50): human neutrophil experiment w/Rolipram. The format is cell-based. In outline:
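Purified human neutrophils (5–10×10^5/ml) pre-incubated 30 min at 37 °C with the A2A agonist, ± rolipram and ± TNF-α (1 U/ml), then stimulated with fMLP (1 μM final). Peak luminol-enhanced chemiluminescence expressed as percent of no-agonist control. EC50 from three donors.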

Test [2] concerns the target T1, human A1 AR (Homo sapiens, UniProt P30542).
T1 sequence (P30542 1-326): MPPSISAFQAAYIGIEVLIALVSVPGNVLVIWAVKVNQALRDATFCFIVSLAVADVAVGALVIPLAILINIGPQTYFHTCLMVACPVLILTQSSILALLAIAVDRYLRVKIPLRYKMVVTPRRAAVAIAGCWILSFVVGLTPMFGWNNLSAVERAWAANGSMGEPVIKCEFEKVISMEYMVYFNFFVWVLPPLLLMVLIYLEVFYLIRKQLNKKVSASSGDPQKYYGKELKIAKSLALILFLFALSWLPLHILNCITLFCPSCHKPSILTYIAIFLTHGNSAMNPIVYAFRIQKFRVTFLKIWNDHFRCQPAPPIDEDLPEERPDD
As to the kind of experiment: Radioligand competition binding (125I-ABA) to human A1 AR in CHO K1 cell membranes. To be noted: for Ki: A1 ± SEM, Ki from competition binding, 125I-ABA, CHO K1 cell membranes; for A1/A2A: selectivity ratio A1 over A2A. A general note: Loss of bound radioactivity is the signal in a displacement assay; it reports binding, not function.
Description: (§1) Sf9 cells were cultured in Grace's medium supplemented with 10% fetal bovine serum, 2.5 μg/ml amphotericin B and 50 μg/ml gentamycin in an atmosphere of 50% N2/50% O2. […] Infected cells were harvested 3 days post-infection and washed twice in insect PBS (PBS pH 6.3). Cells were then resuspended in lysis buffer (20 mM HEPES pH 7.5, 150 mM NaCl, 3 mM MgCl2, 1 mM β-mercaptoethanol (BME), 5 μg/mL leupeptin, 5 μg/mL pepstatin A, 1 μg/mL aprotinin, and 0.1 mM PMSF) and snap frozen for storage at −80° C. Cells were thawed on ice, brought to 30 mL total volume in lysis buffer, and burst by N2 cavitation (600 psi for 20 minutes). A low-speed centrifugation was performed to remove any unlysed cells (1000×g for 10 minutes), followed by a high-speed centrifugation (17,000×g for 30 minutes). The pellet from the final centrifugation was homogenized in buffer containing 20 mM HEPES pH 8, 100 mM NaCl, 1% glycerol, 2 μg/mL leupeptin, 2 μg/mL pepstatin A, 2 μg/mL Aprotinin, 0.1 mM PMSF, and 10 μM GDP using a small glass homogenizer followed by passage through a 26 gauge needle. Membranes were aliquoted, snap frozen in liquid N2, and stored at −80° C.
(§2) Binding experiments were performed in triplicate with 5 μg (A2A) or 25 μg (A1 and A3) membrane protein in a total volume of 0.1 mL HE buffer (20 mM HEPES and 1 mM EDTA) with 1 U/mL adenosine deaminase and 5 mM MgCl2 with or without 50 μM GTPγS. Membranes were incubated with radioligands at room temperature for three hours (for agonists) or two hours (for antagonists) in Millipore Multiscreene® 96-well GF/C filter plates and assays were terminated by rapid filtration on a cell harvester (Brandel, Gaithersburg, Md.) followed by 4×150 μl washes over 30 seconds with ice cold 10 mM Tris-HCl, pH 7.4, 10 mM MgCl2.

Test [3] addresses T2, A3 AR (Homo sapiens, UniProt P0DMS8).
T2 sequence (P0DMS8 1-318): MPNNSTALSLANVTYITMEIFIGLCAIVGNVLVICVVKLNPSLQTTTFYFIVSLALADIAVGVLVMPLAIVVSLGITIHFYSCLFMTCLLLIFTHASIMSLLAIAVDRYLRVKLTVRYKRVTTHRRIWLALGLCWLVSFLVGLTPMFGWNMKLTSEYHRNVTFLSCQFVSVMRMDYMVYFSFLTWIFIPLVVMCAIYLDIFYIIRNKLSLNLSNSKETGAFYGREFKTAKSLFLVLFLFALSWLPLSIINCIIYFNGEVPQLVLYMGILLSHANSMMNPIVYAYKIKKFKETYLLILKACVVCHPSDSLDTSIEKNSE
Description: Radioligand competition binding (125I-ABA) to human A3 AR in HEK 293 cell membranes. To be noted: for Ki: A3 ± SEM, Ki from competition binding, 125I-ABA, HEK 293 cell membranes; for A3/A2A: selectivity ratio A3 over A2A.
Description: as §1, §2

In test [4] the target is recombinant human A2A receptors (Homo sapiens, UniProt P29274). Description: Radioligand competition binding to recombinant human A2A receptors in Sf9 cell membranes. To be noted: A2A ± SEM, Ki from competition binding, Sf9 cell membranes.
Chain of recombinant human A2A receptors (P29274 whole entry): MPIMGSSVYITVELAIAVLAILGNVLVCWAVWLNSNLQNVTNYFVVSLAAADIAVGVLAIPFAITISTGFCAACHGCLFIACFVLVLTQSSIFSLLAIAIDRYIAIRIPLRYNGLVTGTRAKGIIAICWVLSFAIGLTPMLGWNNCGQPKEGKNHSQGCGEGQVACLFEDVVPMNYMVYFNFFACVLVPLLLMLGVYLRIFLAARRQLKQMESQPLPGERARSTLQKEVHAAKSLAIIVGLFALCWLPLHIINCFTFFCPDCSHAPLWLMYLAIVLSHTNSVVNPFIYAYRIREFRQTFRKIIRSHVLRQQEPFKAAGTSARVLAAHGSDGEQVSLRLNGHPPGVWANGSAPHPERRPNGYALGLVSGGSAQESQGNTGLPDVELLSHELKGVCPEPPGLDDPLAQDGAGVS

Regarding `CCNC(=O)[C@H]1O[C@@H](n2cnc3c(N)nc(C#CC4(O)CCCCC4C(C)(C)C)nc32)C(O)C1O` (stereo in doubt) [JR-3227, 5-[6-Amino-2-(2-tert-butyl-1-hydroxycyclohexylethynyl)purin-9-yl]-3,4-dihydroxytetrahydrofuran-2-carboxylic acid ethylamide], in test [1], the EC50 was 7.41 µM and the “PMN oxid + roli (-log EC50)” value worked out at 7.14. Further, in test [2], the Ki is 0.536 µM and the A1/A2A came out at 21.4. Besides, in test [3], the inhibitory constant (Ki) came out at 0.05 µM and the A3/A2A is listed as 2.0. Also, the inhibitory constant (Ki) in test [4] was 0.0251 ± 0.0013 µM.

`CCNC(=O)[C@H]1O[C@@H](n2cnc3c(N)nc(C#CCC4CCN(C(=O)OC(C)(C)C)CC4)nc32)C(O)C1O` (stereo in doubt) [JR-3259, 4-{3-[6-Amino-9-(5-ethylcarbamoyl-3,4-dihydroxytetrahydrofuran-2-yl)-9H-purin-2-yl]-prop-2-ynyl}-piperidine-1-carboxylic acid tert-butyl ester]: in test [1], the EC50 was 0.00347 µM and the “PMN oxid + roli (-log EC50)” value is reported as 9.26. In test [2], the affinity corresponds to a Ki of 0.205 ± 0.0026 µM and the A1/A2A is recorded as 227.8. In test [3], the affinity, expressed as Ki, was 0.0456 ± 0.01 µM and the A3/A2A is listed as 50.7. In test [4], the Ki stood at 0.0009 ± 0.0001 µM.

`CCNC(=O)[C@H]1O[C@@H](n2cnc3c(N)nc(C#CCC4CCN(C(=O)OCC)CC4)nc32)C(O)C1O` (stereo in doubt) [JR-3269, 4-{3-[6-Amino-9-(5-ethylcarbamoyl-3,4-dihydroxytetrahydrofuran-2-yl)-9H-purin-2-yl]-prop-2-ynyl}-piperidine-1-carboxylic acid ethyl ester]: the 50% effective concentration (EC50) in test [1] was 0.00224 µM. In addition, in test [2], the inhibition constant (Ki) was found to be 0.134 µM and the A1/A2A was 106.0. In test [3], the Ki is 0.0686 µM and the A3/A2A is on record as 54.4. Also, in test [4], the inhibition constant (Ki) was determined as 0.00126 ± 0.00021 µM.

Regarding `CCNC(=O)[C@H]1O[C@@H](n2cnc3c(N)nc(C#CCN4CCC(C(=O)OCC)CC4)nc32)C(O)C1O` (stereo in doubt) [JR-3279, 1-{3-[6-Amino-9-(5-ethylcarbamoyl-3,4-dihydroxytetrahydrofuran-2-yl)-9H-purin-2-yl]-prop-2-ynyl}-piperidine-4-carboxylic acid ethyl ester], the EC50 in test [1] is 0.0138 µM. Moreover, in test [2], the affinity, expressed as Ki, was 0.0144 µM and the A1/A2A is given as 3.8. Moreover, the A3/A2A in test [3] was 0.0. In addition, the Ki in test [4] amounted to 0.00382 ± 0.00095 µM.

Take `CCNC(=O)[C@H]1O[C@@H](n2cnc3c(N)nc(C#CCN4CCN(C(=O)OC(C)(C)C)CC4)nc32)C(O)C1O` (stereo in doubt) [JR-3281, 4-{3-[6-Amino-9-(5-ethylcarbamoyl-3,4-dihydroxytetrahydrofuran-2-yl)-9H-purin-2-yl]-prop-2-ynyl}-piperazine-1-carboxylic acid tert-butyl ester]: the EC50 in test [1] is 0.00646 µM. Further, in test [2], the inhibition constant Ki stood at 0.00915 ± 0.00135 µM and the A1/A2A stood at 3.9. In test [3], the inhibitory constant (Ki) amounted to 0.038 µM and the A3/A2A was 16.1. Moreover, the inhibition constant (Ki) in test [4] amounted to 0.00236 ± 0.0005 µM.

Take `CCNC(=O)[C@H]1O[C@@H](n2cnc3c(N)nc(C#CCN4CCN(c5ncccn5)CC4)nc32)C(O)C1O` (stereo in doubt) [JR-3283, 5-{6-Amino-2-[3-(4-pyrimidin-2-yl-piperazin-1-yl)-prop-1-ynyl]-purin-9-yl}-3,4-dihydroxytetrahydrofuran-2-carboxylic acid ethylamide]: the EC50 in test [1] was 0.00575 µM. The results for the Ki in test [2], in test [3] and in test [4] were 0.0153 ± 0.0004 µM, 0.0662 µM and 0.002 ± 0.00025 µM, respectively. Besides, the A1/A2A in test [2] amounted to 4.6. Also, the A3/A2A in test [3] is reported as 19.0.
